These results are taken from ChEMBL document CHEMBL5257047, “Synthesis and Anti-Inflammatory Activity of the Natural Cyclooxygenase-2 Inhibitor Axinelline A and Its Analogues” (J Nat Prod, 2023).

In general, IC50 refers to the point on the concentration scale where inhibition reaches its midpoint.

The target of series [1] is T1, Prostaglandin G/H synthase 1 (Ovis aries) (UniProt P05979).
T1 sequence (whole entry): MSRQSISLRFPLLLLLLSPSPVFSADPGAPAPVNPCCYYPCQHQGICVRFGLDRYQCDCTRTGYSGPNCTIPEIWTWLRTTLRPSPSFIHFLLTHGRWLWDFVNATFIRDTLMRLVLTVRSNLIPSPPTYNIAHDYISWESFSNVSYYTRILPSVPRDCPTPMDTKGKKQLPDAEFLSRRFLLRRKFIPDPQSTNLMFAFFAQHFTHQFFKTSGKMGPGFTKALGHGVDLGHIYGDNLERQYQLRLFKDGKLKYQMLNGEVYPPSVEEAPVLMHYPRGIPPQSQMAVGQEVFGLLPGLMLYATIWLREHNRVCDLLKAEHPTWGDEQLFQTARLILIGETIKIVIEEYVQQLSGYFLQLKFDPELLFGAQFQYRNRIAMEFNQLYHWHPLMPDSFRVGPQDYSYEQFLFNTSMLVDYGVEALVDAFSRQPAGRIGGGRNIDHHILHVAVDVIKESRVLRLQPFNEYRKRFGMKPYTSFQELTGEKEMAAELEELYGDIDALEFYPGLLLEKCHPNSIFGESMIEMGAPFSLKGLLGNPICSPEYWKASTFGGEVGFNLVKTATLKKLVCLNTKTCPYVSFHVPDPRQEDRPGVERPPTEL
The series is described as follows: Inhibition of ovine COX-1 using arachidonic acid as substrate at 10 uM preincubated with compound for 5 mins followed by substrate addition and measured after 2 mins by fluorescence spectrum analysis. The note with it: time 7.0 min.

Series [2] addresses T2, Prostaglandin G/H synthase 2 (Homo sapiens) (UniProt P35354).
T2 sequence (whole entry): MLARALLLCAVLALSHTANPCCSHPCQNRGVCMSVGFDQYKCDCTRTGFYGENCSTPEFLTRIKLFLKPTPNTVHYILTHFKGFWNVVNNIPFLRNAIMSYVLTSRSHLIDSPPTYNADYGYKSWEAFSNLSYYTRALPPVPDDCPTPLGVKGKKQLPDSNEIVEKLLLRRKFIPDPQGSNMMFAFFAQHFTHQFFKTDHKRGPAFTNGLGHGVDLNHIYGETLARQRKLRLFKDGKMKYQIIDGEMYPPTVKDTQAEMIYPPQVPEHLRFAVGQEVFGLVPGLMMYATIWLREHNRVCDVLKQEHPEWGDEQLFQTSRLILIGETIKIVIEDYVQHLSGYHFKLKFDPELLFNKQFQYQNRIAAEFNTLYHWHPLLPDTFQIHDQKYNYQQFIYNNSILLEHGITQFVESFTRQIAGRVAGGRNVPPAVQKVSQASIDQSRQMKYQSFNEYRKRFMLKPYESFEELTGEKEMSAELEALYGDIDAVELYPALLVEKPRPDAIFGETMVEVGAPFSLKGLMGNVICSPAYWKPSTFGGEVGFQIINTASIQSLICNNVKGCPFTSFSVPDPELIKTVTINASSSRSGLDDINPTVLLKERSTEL
The series can be described thus: Inhibition of recombinant human COX-2 using arachidonic acid as substrate at 10 uM preincubated with compound for 5 mins followed by substrate addition and measured after 2 mins by fluorescence spectrum analysis. The settings on record: time 7.0 min.

Series [3] has as its system RAW264.7. The series is described as follows: Inhibition of IKK phosphorylation in LPS-stimulated mouse RAW264.7 cells preincubated with compound for 1 hrs followed by LPS-stimulation and measured after 30 mins by Western blot analysis. The class given is cell-based. The settings on record: dose 2-30 µM, time 1.5 hrs. A general note: In western blotting, separated proteins are transferred to a membrane and probed.

In series [4] the target is T3, NF-kappa-B inhibitor alpha (Mus musculus) (UniProt Q9Z1E3).
T3 sequence (whole entry): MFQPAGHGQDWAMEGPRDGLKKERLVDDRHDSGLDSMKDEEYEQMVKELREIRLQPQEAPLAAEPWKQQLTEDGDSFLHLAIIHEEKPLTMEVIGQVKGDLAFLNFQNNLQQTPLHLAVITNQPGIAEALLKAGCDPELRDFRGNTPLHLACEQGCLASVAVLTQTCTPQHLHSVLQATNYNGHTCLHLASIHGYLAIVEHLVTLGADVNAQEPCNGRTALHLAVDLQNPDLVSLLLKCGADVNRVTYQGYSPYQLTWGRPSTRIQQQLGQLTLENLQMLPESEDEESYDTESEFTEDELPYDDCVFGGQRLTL
The series is described as follows: Inhibition of IkappaBalpha phosphorylation in LPS-stimulated mouse RAW264.7 cells preincubated with compound for 1 hrs followed by LPS-stimulation and measured after 30 mins by Western blot analysis. It counts as cell-based. The note with it: dose 2-30 µM, time 1.5 hrs.

Series [5] concerns L02. The series can be described thus: Cytotoxicity against human L02 cells assessed as reduction in cell survival at 10 uM incubated for 24 hrs by MTT assay. The settings on record: l02, 24 h. The class given is toxicity, cell-based.
The target of series [6] is T4, Prostaglandin G/H synthase 2 (Ovis aries, UniProt P79208).
T4 sequence (P79208 whole entry): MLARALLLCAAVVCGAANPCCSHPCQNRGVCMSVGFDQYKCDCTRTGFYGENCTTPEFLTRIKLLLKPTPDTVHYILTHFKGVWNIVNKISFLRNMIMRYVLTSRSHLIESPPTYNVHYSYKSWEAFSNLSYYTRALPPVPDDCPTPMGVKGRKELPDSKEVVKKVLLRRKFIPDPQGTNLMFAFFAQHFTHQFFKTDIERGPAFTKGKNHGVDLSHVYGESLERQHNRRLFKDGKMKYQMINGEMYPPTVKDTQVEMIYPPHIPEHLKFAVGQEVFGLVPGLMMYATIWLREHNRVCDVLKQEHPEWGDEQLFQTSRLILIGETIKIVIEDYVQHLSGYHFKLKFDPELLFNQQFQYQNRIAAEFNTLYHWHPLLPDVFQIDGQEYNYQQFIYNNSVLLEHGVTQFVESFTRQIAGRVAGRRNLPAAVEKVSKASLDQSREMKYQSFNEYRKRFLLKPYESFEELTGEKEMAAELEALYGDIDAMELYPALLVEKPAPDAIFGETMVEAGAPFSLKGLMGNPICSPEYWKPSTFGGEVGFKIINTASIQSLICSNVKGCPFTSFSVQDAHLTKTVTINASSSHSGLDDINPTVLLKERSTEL
The series is described as follows: Inhibition of ovine COX-2 assessed as reduction in PGF2alpha production by enzyme immunoassay.

The test system of series [7] is RAW264.7. The series can be described thus: Cytotoxicity against mouse RAW264.7 cells assessed as reduction in cell survival at 10 uM incubated for 24 hrs by MTT assay. The class given is toxicity, cell-based. The note with it: raw264.7, 24 h.
Series [8] has as its system RAW264.7. The series is described as follows: Anti-inflammatory activity in mouse RAW264.7 cells assessed as decrease in LPS-induced COX-2 protein expression incubated for 24 hrs by Western blot analysis. The settings on record: dose 2-10 µM. The class given is functional, cell-based.
Series [9] has as its target T5, Prostaglandin G/H synthase 2 (Homo sapiens, UniProt P35354).
T5 sequence (P35354 whole entry): T2 sequence (whole entry)
The series is described as follows: Inhibition of recombinant human COX-2 using arachidonic acid as substrate preincubated with compound for 5 mins followed by substrate addition and measured after 2 mins by fluorescence spectrum analysis.

The test system of series [10] is RAW264.7. The series is described as follows: Effect of NF-kappaB protein level in LPS-stimulated mouse RAW264.7 cells at 2 to 30 uM preincubated with compound for 1 hrs followed by LPS-stimulation and measured after 30 mins by Western blot analysis. The class given is functional, cell-based. The note with it: dose 2-30 µM, time 1.5 hrs.
Series [11] has as its system L929. The series is described as follows: Cytotoxicity against mouse L929 cells assessed as reduction in cell survival at 10 uM incubated for 24 hrs by MTT assay. The settings on record: l929, 24 h. The class given is toxicity, cell-based. In general terms: Formazan colour is commonly taken as a measure of viable cells.
The test system of series [12] is RAW264.7. The series is described as follows: Anti-inflammatory activity in mouse RAW264.7 cells assessed as decrease in LPS-induced NO production incubated for 24 hrs by Griess reagent based assay. It counts as functional, cell-based. The note with it: dose 2-30 µM. On the technique in general: Nitrite, measured by Griess reagent, commonly stands in for NO production.

Series [13] concerns RAW264.7. The series is described as follows: Anti-inflammatory activity in mouse RAW264.7 cells assessed as decrease in LPS-induced IL-6 production incubated for 24 hrs by ELISA analysis. It counts as functional, cell-based. The settings on record: dose 2-30 µM.
Series [14] relates to RAW264.7. The series can be described thus: Cytotoxicity against mouse RAW264.7 cells assessed as reduction in cell survival upto 50 uM incubated for 48 to 72 hrs by MTT assay. The class given is toxicity, cell-based. The note with it: raw264.7, 50 µM, time 48-72 hrs.
For series [15], the system named is RAW264.7. The series can be described thus: Inhibition of NF-kappaB phosphorylation in LPS-stimulated mouse RAW264.7 cells at 2 to 30 uM preincubated with compound for 1 hrs followed by LPS-stimulation and measured after 30 mins by Western blot analysis. The class given is cell-based. The note with it: dose 2-30 µM, time 1.5 hrs.
Series [16] concerns RAW264.7. The series is described as follows: Anti-inflammatory activity in mouse RAW264.7 cells assessed as decrease in LPS-induced IL-1beta production incubated for 24 hrs by ELISA analysis. It counts as functional, cell-based. The settings on record: dose 2-30 µM.
Series [17] relates to L02. The series can be described thus: Cytotoxicity against human L02 cells assessed as reduction in cell survival upto 50 uM incubated for 48 to 72 hrs by MTT assay. The class given is toxicity, cell-based. The note with it: l02, 50 µM, time 48-72 hrs.
Series [18] relates to RAW264.7. The series can be described thus: Anti-inflammatory activity in mouse RAW264.7 cells assessed as decrease in LPS-induced TNF-alpha production incubated for 24 hrs by ELISA analysis. The note with it: dose 2-30 µM. It counts as functional, cell-based.
Series [19] addresses T6, Prostaglandin G/H synthase 2 (Mus musculus) (UniProt Q05769).
T6 sequence (whole entry): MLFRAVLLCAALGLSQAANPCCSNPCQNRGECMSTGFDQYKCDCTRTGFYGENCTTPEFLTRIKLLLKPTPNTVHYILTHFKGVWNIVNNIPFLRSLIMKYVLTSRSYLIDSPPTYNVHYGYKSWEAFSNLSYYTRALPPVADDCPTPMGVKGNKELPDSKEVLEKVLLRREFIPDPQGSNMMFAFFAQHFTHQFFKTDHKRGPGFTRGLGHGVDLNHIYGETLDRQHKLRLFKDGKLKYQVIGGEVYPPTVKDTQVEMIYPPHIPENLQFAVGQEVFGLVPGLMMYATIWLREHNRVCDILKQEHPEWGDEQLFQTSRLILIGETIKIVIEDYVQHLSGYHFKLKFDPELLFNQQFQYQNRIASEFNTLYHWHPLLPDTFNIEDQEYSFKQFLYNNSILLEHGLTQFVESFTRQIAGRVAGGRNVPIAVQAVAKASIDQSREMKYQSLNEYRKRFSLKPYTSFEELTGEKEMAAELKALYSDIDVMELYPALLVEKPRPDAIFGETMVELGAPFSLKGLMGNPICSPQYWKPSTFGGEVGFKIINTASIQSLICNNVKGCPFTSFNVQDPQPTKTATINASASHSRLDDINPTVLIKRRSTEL
The series is described as follows: Inhibition of COX-2 in mouse RAW264.7 cells assessed as suppression of LPS-induced PGE2 production at 2 to 30 uM incubated for 24 hrs by ELISA analysis. It counts as cell-based. The note with it: dose 2-30 µM.

In series [20] the test system is RAW264.7. The series is described as follows: Anti-inflammatory activity in mouse RAW264.7 cells assessed as decrease in LPS-induced iNOS protein expression incubated for 24 hrs by Western blot analysis. The class given is functional, cell-based. The note with it: dose 2-10 µM.
The target in series [21] is T7, Prostaglandin G/H synthase 1 (Ovis aries, UniProt P05979).
T7 sequence (P05979 whole entry): T1 sequence (whole entry)
The series can be described thus: Inhibition of ovine COX-1 using arachidonic acid as substrate preincubated with compound for 5 mins followed by substrate addition and measured after 2 mins by fluorescence spectrum analysis.

The subject of series [22] is L929. The series is described as follows: Cytotoxicity against mouse L929 cells assessed as reduction in cell survival upto 50 uM incubated for 48 to 72 hrs by MTT assay. The class given is toxicity, cell-based. The note with it: l929, 50 µM, time 48-72 hrs.

Calls of active or inactive are those of the source. No cut-off for these calls is given here.

In the case of `CCOC(=O)[C@H](CO)NC(=O)c1ccccc1`, the inhibition entry in series [1] and in series [2] was “Active” each time.
Consider `CCOC(=O)[C@H](CO)NC(=O)c1ccc(O)cc1`, for which the inhibition entry in series [1] and in series [2] was “Active” throughout.
Regarding `CCOC(=O)[C@H](CO)NC(=O)c1cccc(O)c1`, the inhibition result in [1] and in series [2] was “Active” throughout.
Consider `CCOC(=O)[C@H](CO)NC(=O)c1cccc(O)c1O`, for which the inhibition entry (with RAW264.7 [3]; in series [4]) was “Dose-Dependent Effect” each time. The Activity result with L02 [5] is “Non-Toxic”; with RAW264.7 [7], “Non-Toxic”; in the series with RAW264.7 [8] it was “Dose-Dependent Effect”; in the series on L929 [11], “Non-Toxic”; in the series on RAW264.7 [12], “Dose-Dependent Effect”; in the series with RAW264.7 [13] it was “Dose-Dependent Effect”. Also, the Activity result was “Toxic” in the series with RAW264.7 [14]; “Dose-Dependent Effect” in the series on RAW264.7 [16]; “Toxic” in the series on L02 [17]; “Dose-Dependent Effect” in the series on RAW264.7 [18]; “Dose-Dependent Effect” in the series on RAW264.7 [20]; “Toxic” in the series with L929 [22]. Moreover, the figures for the IC50 in series [6], in series [9] and in series [21] were 2800 nM, 2220 nM and 8890 nM, respectively. In addition, in the series with RAW264.7 [10], the result was inactive. Besides, the inhibition result (in the series with RAW264.7 [15]; in [19]) was “Active” each time.
For `CCOC(=O)[C@H](CO)NC(=O)c1ccccc1O`, the inhibition entry in series [1] and in series [2] was “Active” throughout.
